Test results published in ChEMBL document CHEMBL4351003, “Selective Toll-like receptor 7 agonists with novel chromeno[3,4-d]imidazol-4(1H)-one and 2-(trifluoromethyl)quinoline/ quinazoline-4-amine scaffolds” (Eur J Med Chem, 2019).
pEC50: −log10 of the molar value. Calls of active or inactive are those of the source. No cut-off for these calls is given here.

Columns and labels:
[1] = molecular target: T1, Toll-like receptor 8 (Homo sapiens) (UniProt Q9NR97); experiment: Agonist activity at human TLR8 in HEK293 cells cotransfected with SEAP reporter gene assessed as activity of SEAP incubated for 24 hrs by quanti-blue staining based SEAP reporter gene assay; assay type: cell-based
T1 sequence (whole entry): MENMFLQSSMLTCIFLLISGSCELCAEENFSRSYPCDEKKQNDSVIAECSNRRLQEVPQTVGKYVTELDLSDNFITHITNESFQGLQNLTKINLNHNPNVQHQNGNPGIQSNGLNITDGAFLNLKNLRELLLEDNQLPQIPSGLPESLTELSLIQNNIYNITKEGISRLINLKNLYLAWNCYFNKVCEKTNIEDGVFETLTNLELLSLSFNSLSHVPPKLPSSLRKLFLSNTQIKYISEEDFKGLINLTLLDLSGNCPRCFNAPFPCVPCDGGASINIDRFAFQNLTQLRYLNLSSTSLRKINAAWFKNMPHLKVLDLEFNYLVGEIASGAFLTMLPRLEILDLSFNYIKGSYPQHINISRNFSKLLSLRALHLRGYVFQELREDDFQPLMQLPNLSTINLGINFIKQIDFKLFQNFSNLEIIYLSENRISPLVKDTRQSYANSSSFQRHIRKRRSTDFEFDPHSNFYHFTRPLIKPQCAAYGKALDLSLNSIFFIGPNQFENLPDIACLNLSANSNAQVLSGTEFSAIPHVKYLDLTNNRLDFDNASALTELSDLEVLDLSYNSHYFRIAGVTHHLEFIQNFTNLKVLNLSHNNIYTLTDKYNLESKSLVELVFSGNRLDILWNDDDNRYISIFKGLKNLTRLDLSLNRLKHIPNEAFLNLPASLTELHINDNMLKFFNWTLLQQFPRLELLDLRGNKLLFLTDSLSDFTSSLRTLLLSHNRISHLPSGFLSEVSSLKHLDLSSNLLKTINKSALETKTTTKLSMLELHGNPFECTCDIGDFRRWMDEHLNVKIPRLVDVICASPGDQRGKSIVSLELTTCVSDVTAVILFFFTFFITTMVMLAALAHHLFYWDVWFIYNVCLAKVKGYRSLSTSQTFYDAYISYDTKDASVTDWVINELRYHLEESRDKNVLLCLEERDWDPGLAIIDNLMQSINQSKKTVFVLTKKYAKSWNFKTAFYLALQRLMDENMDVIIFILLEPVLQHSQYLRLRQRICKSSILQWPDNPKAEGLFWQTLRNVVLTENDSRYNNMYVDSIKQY

[2] = molecular target: T2, Toll-like receptor 7 (Homo sapiens) (UniProt Q9NYK1); experiment: Antagonist activity at human TLR7 in HEK293 cells cotransfected with SEAP reporter gene assessed as activity of SEAP preincubated for 2 hrs followed by imiquimod addition further incubated for 24 hrs by quanti-blue staining based SEAP reporter gene assay; assay type: cell-based
T2 sequence (whole entry): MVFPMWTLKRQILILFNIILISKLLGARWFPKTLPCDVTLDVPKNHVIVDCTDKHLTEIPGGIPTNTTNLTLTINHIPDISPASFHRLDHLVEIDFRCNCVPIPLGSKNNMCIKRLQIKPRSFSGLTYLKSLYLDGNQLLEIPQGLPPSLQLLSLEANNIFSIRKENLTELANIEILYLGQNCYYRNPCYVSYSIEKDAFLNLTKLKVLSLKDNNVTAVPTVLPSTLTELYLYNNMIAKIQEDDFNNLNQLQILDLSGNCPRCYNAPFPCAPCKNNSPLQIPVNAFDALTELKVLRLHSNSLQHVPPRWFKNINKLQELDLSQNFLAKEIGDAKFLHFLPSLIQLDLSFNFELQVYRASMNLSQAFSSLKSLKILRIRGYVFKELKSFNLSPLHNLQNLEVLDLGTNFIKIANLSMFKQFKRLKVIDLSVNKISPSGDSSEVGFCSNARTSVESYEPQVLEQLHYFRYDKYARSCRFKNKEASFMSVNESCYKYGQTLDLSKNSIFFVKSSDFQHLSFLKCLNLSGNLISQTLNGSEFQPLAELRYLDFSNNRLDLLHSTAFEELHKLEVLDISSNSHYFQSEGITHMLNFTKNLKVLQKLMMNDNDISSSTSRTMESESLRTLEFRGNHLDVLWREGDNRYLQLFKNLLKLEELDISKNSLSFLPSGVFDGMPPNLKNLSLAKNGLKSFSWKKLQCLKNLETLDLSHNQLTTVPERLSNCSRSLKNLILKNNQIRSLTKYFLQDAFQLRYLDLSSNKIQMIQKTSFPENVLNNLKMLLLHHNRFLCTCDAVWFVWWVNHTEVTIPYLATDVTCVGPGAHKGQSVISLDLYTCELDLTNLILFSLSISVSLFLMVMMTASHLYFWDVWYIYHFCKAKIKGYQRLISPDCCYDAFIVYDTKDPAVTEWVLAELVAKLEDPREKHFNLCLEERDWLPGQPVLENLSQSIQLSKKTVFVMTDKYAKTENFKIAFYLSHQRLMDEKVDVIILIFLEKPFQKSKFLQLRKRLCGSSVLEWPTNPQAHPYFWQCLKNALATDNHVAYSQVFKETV

[3] = Cytotoxicity against human HEK293 cells transfected with human TLR7/8 assessed as reduction in cell viability incubated for 24 hrs by MTS assay; assay type: cell-based; conditions: read-out: MNCC
Toll-like receptor 7 = molecular target: T3, Toll-like receptor 7 (Homo sapiens, UniProt Q9NYK1); experiment: Agonist activity at human TLR7 in HEK293 cells cotransfected with SEAP reporter gene assessed as activity of SEAP incubated for 24 hrs by quanti-blue staining based SEAP reporter gene assay; assay type: cell-based; conditions: for pEC50: read-out: EC50; for EC50: hek293
T3 sequence (Q9NYK1 whole entry): T2 sequence (whole entry)

PBMC [4] = experiment: Induction of IL-8 production in human PBMC at 10 ug/ml incubated for 24 hrs by flow cytometry analysis; assay type: functional, cell-based
PBMC [5] = experiment: Induction of IL-12p70 production in human PBMC at 10 ug/ml incubated for 24 hrs by flow cytometry analysis; assay type: functional, cell-based
PBMC [6] = experiment: Induction of TNFalpha production in human PBMC at 10 ug/ml incubated for 24 hrs by flow cytometry analysis; assay type: functional, cell-based

Row | SMILES | Activity [1] | Activity [2] | MNTC at 24 h [3] | pEC50 (Toll-like receptor 7) | EC50 (Toll-like receptor 7) | Activity (PBMC [4]) | Activity (PBMC [5]) | Activity (PBMC [6])
1 | FC(F)(F)c1nc(N2CCCC2)c2ccccc2n1 | inactive | inactive | 31.3 µM | 4.81 |  |  |  | 
2 | CC(C)Cn1cnc2c(=O)oc3ccc([N+](=O)[O-])cc3c21 |  |  | 62.5 µM |  | Not Active |  |  | 
3 | CC1CCCN(c2cc(C(F)(F)F)nc3ccccc23)C1 (stereo not drawn) |  |  | 31.3 µM |  | Not Active |  |  | 
4 | CN1CCN(c2nc(C(F)(F)F)nc3ccccc23)CC1 |  |  | 7.8 to 250 µM |  | Not Active |  |  | 
5 | COc1ccc2oc(=O)c3ncn(CC(C)C)c3c2c1 |  |  | 62.5 µM |  | Not Active |  |  | 
6 | CC(C)Cn1cnc2c(=O)oc3cc(O)ccc3c21 | inactive | inactive | ≥ 250 µM | 3.94 |  |  |  | 
7 | Nc1nc(C(F)(F)F)nc2ccccc12 |  |  | 62.5 µM |  | Not Active |  |  | 
8 | O=C(O)CNc1nc(C(F)(F)F)nc2ccccc12 |  |  | 31.3 µM |  | Not Active |  |  | 
9 | FC(F)(F)c1nc(NCC2CC2)c2ccccc2n1 | inactive | inactive | 31.3 µM | 4.82 |  |  |  | 
10 | COc1ccc2c(c1)oc(=O)c1ncn(CC(C)C)c12 | inactive | inactive | ≥ 250 µM | 3.55 |  |  |  | 
11 | CC(C)Nc1nc(C(F)(F)F)nc2ccccc12 | inactive | inactive | 62.5 µM | 4.24 |  |  |  | 
12 | COCCn1cnc2c(=O)oc3ccccc3c21 |  |  | ≥ 250 µM |  | Not Active |  |  | 
13 | CC(C)n1cnc2c(=O)oc3ccccc3c21 |  |  | ≥ 250 µM |  | Not Active |  |  | 
14 | FC(F)(F)c1nc(N2CCOCC2)c2ccccc2n1 |  |  | 125 µM |  | Not Active |  |  | 
15 | CC(C)CNc1nc(C(F)(F)F)nc2ccccc12 | inactive | inactive | 7.8 to 250 µM | 5.36 |  |  |  | 
16 | OCCNc1nc(C(F)(F)F)nc2ccccc12 |  | inactive | 125 µM |  |  |  |  | 
17 | Nc1ccc(CNc2nc(C(F)(F)F)nc3ccccc23)cc1 |  |  | 15.6 µM |  | Not Active |  |  | 
18 | CC(C)Cn1cnc2c(N)nc3ccccc3c21 [IMIQUIMOD] |  |  |  | 5.09 to 5.21 |  | Active | inactive | inactive

Row | SMILES | Activity [1] | Activity [2] | MNTC at 24 h [3] | pEC50 (Toll-like receptor 7) | EC50 (Toll-like receptor 7) | Activity (PBMC [4]) | Activity (PBMC [5]) | Activity (PBMC [6])
19 | CC1CCCN(c2nc(C(F)(F)F)nc3ccccc23)C1 (stereo not drawn) | inactive | inactive | 62.5 µM | 5.40 |  |  |  | 
20 | Oc1nc(C(F)(F)F)nc2ccccc12 |  |  | 62.5 µM |  | Not Active |  |  | 
21 | COCCCn1cnc2c(=O)oc3ccccc3c21 |  |  | ≥ 250 µM |  | Not Active |  |  | 
22 | FC(F)(F)c1nc(Cl)c2ccccc2n1 |  |  | 31.3 µM |  | Not Active |  |  | 
23 | FC(F)(F)c1nc(NCCc2cnc[nH]2)c2ccccc2n1 |  |  | 31.3 µM |  | Not Active |  |  | 
24 | FC(F)(F)c1nc(NCCN2CCCCC2)c2ccccc2n1 |  |  | 62.5 µM |  | Not Active |  |  | 
25 | CCCNc1nc(C(F)(F)F)nc2ccccc12 | inactive | inactive | 62.5 µM | 4.36 |  |  |  | 
26 | CC(C)Cn1cnc2c(=O)oc3ccc(F)cc3c21 |  |  | ≥ 250 µM |  | Not Active |  |  | 
27 | FC(F)(F)c1nc(NC2CCCC2)c2ccccc2n1 | inactive | inactive | 62.5 µM | 4.96 |  |  |  | 
28 | CCn1cnc2c(=O)oc3ccc(F)cc3c21 |  |  | ≥ 250 µM |  | Not Active |  |  | 
29 | CCCn1cnc2c(=O)oc3ccccc3c21 |  |  | ≥ 250 µM |  | Not Active |  |  | 
30 | Cc1ccc2oc(=O)c3ncn(CC(C)C)c3c2c1 | inactive | inactive | ≥ 250 µM | 3.27 |  |  |  | 
31 | CC(C)Cn1cnc2c(=O)oc3ccccc3c21 | inactive | Active |  |  |  |  |  | 
32 | C=CCn1cnc2c(=O)oc3ccccc3c21 |  |  | ≥ 250 µM |  | Not Active |  |  | 
33 | FC(F)(F)c1nc(NC2CCN(C3CC3)CC2)c2ccccc2n1 | inactive | inactive | 125 µM | 4.18 |  |  |  | 
34 | CCCCn1cnc2c(=O)oc3ccccc3c21 | inactive | inactive | ≥ 250 µM | 3.97 |  |  |  | 
35 | CCN(CC)c1ccc2c(c1)oc(=O)c1ncn(CC(C)C)c12 | inactive | inactive | 62.5 µM | 4.52 |  |  |  | 
